Laboratory results as given in patent US20170216315A1 (priority 2016, published 2017).
Marks after values point to notes of the source that are not given here.

Experiments:
Assay type in all cases: in vivo, mice
catalase (CAT) = assay: Activity of CAT in mouse liver; details: for Activity of CAT: liver homogenate, alcoholic liquid diet, 4 weeks
TNF-α = assay: Concentration of TNF-α in liver (ELISA); details: EK100 1, 5, 10 mg/kg/day vs EtOH group; p<0.05; FIG. 9A
Excerpt: D-3 were taken and diluted with Calibrator Diluent RD 5-17 to ⅓ of the original concentration respectively, and then a Quantikine® Rat TNF-α or a Quantikine® Rat IL-1β commercial kit (purchased from R&D Systems company, United States) was used for the Enzyme-linked immune-sorption assay (ELISA) to measure the amounts of tumor necrosis factor-alpha (TNF-α) and interleukin-1β (IL-1β) therein. […]

CYP2E1 = assay: Protein expression of CYP2E1 in liver (western blot); details: EK100 1, 5, 10 mg/kg/day vs EtOH group, p<0.05, FIGS. 13A, 13B
[1] = system: acetaldehyde dehydrogenase (ALDH); assay: Activity of ALDH in liver homogenate; details: EK100 1, 5, 10 mg/kg/day vs control group; p<0.05; FIG. 14B
Description: D-3 were analyzed. The operation steps were as follows: (i) 100 μl of liver homogenate and 1 ml of sodium pyrophosphate buffer (pH 8.8, 1 mM NAD^+, 0.2 mM 4-methylpyrazole, 1 mM MgCl2, 2 μM rotenone, 1% Triton X-100) were well mixed; the mixture was left standing in the dark at room temperature for 20 minutes; and then the absorbance (A) of the mixture was measured at 340 nm wavelength; (ii) 100 μl of liver homogenate and 1 ml of sodium pyrophosphate buffer (pH 8.8, 1 mM NAD^+, 0.2 mM 4-methylpyrazole, 1 mM MgCl2, 2 μM rotenone, 1% Triton X-100, 5 mM acetaldehyde) were well mixed; the mixture was left standing in the dark at room temperature for 20 minutes, and then the absorbance (B) of the mixture was measured at 340 nm wavelength; (iii) absorbance (A) and absorbance (B) were substituted into formula 3 below to calculate the activity of ALDH (μmole/min/mg protein).

[2] = Alcohol concentration in mouse serum; details: EK100 1, 5, 10 mg/kg/day vs EtOH group; p<0.05; FIG. 15
Description: C-3. At the end of week 4, the mice were fasted for 8 hours. Then, mice blood was collected by orbital sinus blood collection with capillary blood collection needles (for all of the 8 mice from each group). The mice blood was left standing for 1 hour and then centrifuged by a refrigerated microcentrifuge (Kubota corporation, model number: 3700) to separate the supernatant serum. The supernatant serum was stored at −80° C. for the following analysis.
Mouse serum samples of each group provided in [Preparation Examples] C-2 were well mixed with ADH and NAD^+ reagents in a commercial kit (Dade-Berhring company, England, Emit® II Plus Ethyl alcohol assay), and then the alcohol concentrations in the above serum samples were measured by an automatic biochemistry analyzer (Olympus company, Japan, AU2700) at 340 nm wavelength.

CC(C)[C@@H](C)/C=C/[C@@H](C)[C@H]1CC[C@H]2C3=CCC4C[C@@H](O)CC[C@]4(C)C3=CC[C@]12C (some centres unmarked) [EK100]
Activity of CAT in liver compared to EtOH (catalase (CAT); EK100 1, 5, 10 mg/kg/day vs EtOH group, p<0.05): significantly increased
Activity of CAT (catalase (CAT); EK100_1X: 1 mg/kg/day gavage): 175.80 ± 6.89^a unit/mg protein
Activity of CAT (catalase (CAT); EK100_5X: 5 mg/kg/day gavage): 145.43 ± 5.77^b unit/mg protein
Activity of CAT (catalase (CAT); EK100_10X: 10 mg/kg/day gavage): 137.16 ± 6.79^bc unit/mg protein
Concentration of TNF-α in liver compared to EtOH (TNF-α): significantly decreased
Protein expression of CYP2E1 in liver compared to EtOH (CYP2E1): significantly decreased
Activity of ALDH in liver compared to control [1]: significantly increased
Alcohol concentration in serum compared to EtOH [2]: significantly decreased
